In US10682386B2, “Compositions for prevention of adhesions and other barrier applications” (Arch Biosurgery, Inc., priority 2006, dated 2020):

Tests used:
[1] = tested on: branch of the superior sagittal sinus in the brains; assay: Transection of a branch of the superior sagittal sinus in the brain, hemostasis; assay type: in vivo, rats
Experimental: (§1) Animals were anesthetized with an i.p. injection of ketamine (80 mg/kg) and xylazine (8 mg/kg). All surgical procedures were conducted under an operating microscope. Twenty-two animals, including 10 adult hamsters and 12 young adult female Spraque-Dawley rats (200-250 g), were treated with either iced saline or 20 μl of a 1% peptide solution at the site of the sinus branch transection. The material was prepared by dissolving RADA 16-1 (n-RADARADARADARADA-c; SEQ ID NO: 1) peptide in sterile water, and the peptide-containing solution was applied to the injured tissue with a 31 gauge needle attached to a 2 cc syringe.
(§2) The experiment was videotaped with a time stamp and was replayed one frame at a time to evaluate the length of time required for the peptide solution to form a gel, which effectively impeded bleeding. Hemostasis was assessed visually, and “complete hemostasis” was defined as the complete lack of movement of blood from the wound site.
Durations were measured from the start of application of peptide solution to the completion of hemostasis after transection of the veins leading to the sinus in the brains of adult rats. […] In the saline controls, cessation of bleeding was never achieved. The saline control experiment was terminated at the same time point in order to prevent the animals from bleeding to death.

[2] = tested on: branch of the superior sagittal sinus in the brains; assay: as above; assay type: in vivo; conditions: hamsters; 20 μl of a 1% peptide solution at the site of the sinus branch transection; all cases
Experimental: as §1, §2

superior sagittal sinus = assay: Complete transection of the superior sagittal sinus, hemostasis; assay type: in vivo; conditions: control animals that continued to bleed after 20 seconds
Source text: A higher concentration of peptide (e.g., approximately 3%-4%) was used in the latter experiment in order to achieve hemostasis. The three saline control cases continued to bleed after 20 seconds.

femoral artery = assay: Femoral artery transection, hemostasis; assay type: in vivo, adult rats
Experimental: The sciatic nerve and the adjacent femoral artery were exposed in adult rats, and the femoral artery was transected. Twelve rats were treated by application of 20 μl of a 1% solution of RADA 16-I (SEQ ID NO: 1) peptide to the site of transection using a glass pipette attached to a syringe body, while controls were treated by applying cold saline to the site of transection. […] The saline control cases continued to bleed until the experiment was terminated at 110 seconds.
A series of pictures was taken in an adult rat in which the femoral artery was transected. In the picture taken first, the sciatic nerve and the femoral artery are exposed. […] The assembled material can be suctioned off the site easily if desired.

spinotrapezius muscles = assay: Muscle trauma, cut in spinotrapezius muscle on the back, hemostasis; assay type: in vivo, rat; conditions: 1% peptide solution applied in deep cut, 1-2 cm incisions
Source text: The spinotrapezius muscles on the back of the rats were exposed and a deep cut was made in the muscle, after which 1% peptide solution (RADA16-I) (SEQ ID NO: 1) was applied in the cut. Within 10 seconds, all bleeding had stopped. With the application of iced saline alone, control animals continued to bleed after 20 seconds.

[3] = tested on: muscle of the hind limb (porteocaudalis and musculus tibialis cranialis); assay: Muscle trauma, hind limb muscle and limb wounds, hemostasis; assay type: in vivo, rat
Source text: The spinotrapezius muscles on the back of the rats were exposed and a deep cut was made in the muscle, after which 1% peptide solution (RADA16-I) (SEQ ID NO: 1) was applied in the cut. Within 10 seconds, all bleeding had stopped. With the application of iced saline alone, control animals continued to bleed after 20 seconds. […] However when an artery or vein was transected 2% or higher material was needed to bring about hemostasis. […]

[4] = tested on: liver, lobus sinister lateralis; assay: Liver cut, rostral to caudal, vessel of relatively low pressure, hemostasis; assay type: in vivo, adult rat; conditions: 1% peptide solution applied topically and in the cut
Source text: Profuse bleeding ensued. A 1% peptide solution (RADA16-1) (SEQ ID NO: 1) was applied to the cut and in its vicinity using a 27 gauge needle and 4 cc syringe. All bleeding stopped within 10 seconds. A series of pictures was obtained. […] After treating the site with 1% peptide solution (applied topically and in the cut), all bleeding stopped within 10 seconds. A clear area was observed between the two halves of the lobus sinister lateralis. This procedure was repeated several times with the same result.

[5] = tested on: liver, lobus sinister lateralis and a major branch of the portal vein; assay: Liver transverse cut with major branch of the portal vein, higher pressure, hemostasis; assay type: in vivo, rat
Experimental: A series of pictures illustrate the experiment. […] The cut was treated with 4% peptide solution applied topically and in the cut. All bleeding stopped within 10 seconds. […] Thus, application of 4% peptide solution brings about complete hemostasis in a high pressure bleeding environment in less than 10 seconds. […] This procedure was repeated several times with the same result.

[6] = tested on: lobus sinistras laterialis of the liver; assay: Removal of ¼ of the liver lobe, topical treatment of the margin, hemostasis; assay type: in vivo
Experimental: In other experiments ¼ of the lobe in the lower right quadrant of the lobus sinistras laterialis was removed, and the margin was treated with a topical application of 2% peptide (RADA16-I) (SEQ ID NO: 1) to the site of injury. Bleeding stopped in less than 10 seconds.

liver = assay: 4 mm liver punch biopsy, adhesions; assay type: in vivo, adult rats; conditions: punch filled with 3%; survival 2 d, 7 d, 14 d, 6 w, 8 w
Experimental: The liver of 18 adult rats was exposed under deep anesthesia, the upper right lobe was punched by a 4 mm punch, then the wound was treated with 3% NHS-1. Animals were allowed to survive 2 d, 7 d, 14 d, 6 w, and 8 w respectively, then the animals were anesthetized again and the punched lobe of liver was dissected and processed for H&E staining. In addition a set of controls were treated with either saline or cautery. 4 mm liver punch biopsy experiment with control and filling of punch with 3% RADA. All of the controls had adhesions on both surfaces while the treated had no adhesions. In the 2 week, 6 week and 8 week controls adhesions were cut away on the upper and lower surfaces. On all the 3% RADA treated cases there were no adhesions on with the upper or lower surface of the liver.

[7] = tested on: intestine at the level of the duodenum; assay: Perforation of the intestine at the level of the duodenum, leakage of gastric fluid; assay type: in vivo, adult rat
Experimental: An additional volume of 2% peptide solution was injected into the duodenum at the level of the injury. […] In the control cut at the level of the duodenum, the wall of the intestine inverted and gastric fluids continued to leak from the site of injury when left untreated.

[8] = tested on: skin and subcutaneous tissue; assay: 4 mm punch biopsy of skin and subcutaneous tissue, healing test; assay type: in vivo
Experimental: The regions from which the biopsies were taken were either treated by a single application of self-assembling peptide (RADA16-I) (SEQ ID NO: 1) solution or were left untreated. The wounds were left unbandaged. A series of pictures of a 4 mm punch biopsy healing test in which injured animals were treated with the self assembling peptide and compared to matching cases with no treatment illustrates the results. The wounds were photographed on day 0, day 1, day 4, and day 7. […] Treatment with the peptide appeared to speed healing by as much as 5 days in some cases.

## n-RADARADARADARADA-c [RADA16-I]
[1]; adult rat, one of the veins of the superior sagittal sinus transected, series of pictures
  hemostasis five seconds after the peptide solution was applied: Complete hemostasis was achieved
[1]; adult rats, transection of the veins leading to the sinus
  average duration from start of application of peptide solution to completion of hemostasis: 8.3 s
[1]; rats, 20 μl of a 1% peptide solution at the site of the sinus branch transection, all cases
  time to complete hemostasis after application of the peptide solution: ≤ 10 s
[2]
  time to complete hemostasis after application of the peptide solution: ≤ 10 s
Superior sagittal sinus
  hemostasis after iced saline was removed and the peptide solution was applied: complete hemostasis almost immediately
Femoral artery; 20 μl of a 1% solution at the site of transection, twelve rats, all treated cases
  time to hemostasis: less than 10 seconds
Femoral artery; adult rat, series of pictures
  time at which complete hemostasis was observed: about five
Femoral artery; control animals that bled until 110 seconds
  hemostasis after replacement of the cold saline with the peptide solution: almost immediate achievement of complete hemostasis
Femoral artery; duration of the test
  time complete hemostasis was maintained: 1 h
Spinotrapezius muscles
  time until all bleeding had stopped: ≤ 10 s
[3]; between 1% to 100% peptide applied
  hemostasis in limb wounds: hemostasis was achieved in all cases
[3]; when an artery or vein was transected
  concentration of material needed to bring about hemostasis: ≥ 2%
[4]
  time until all bleeding stopped: ≤ 10 s
[5]; 1% solution
  hemostasis: partial cessation of bleeding
[5]; 2% peptide solution
  hemostasis: complete hemostasis was also achieved
[5]; 3% peptide solution
  hemostasis: complete hemostasis was also achieved
[5]; 4% peptide solution
  bleeding ten minutes later: still no bleeding
  bleeding under physical stress (lower part of lobe pulled downward): did not bleed
[5]; 30 seconds after treatment
  hemostasis after excess peptide structure was wiped away: hemostasis was maintained
[6]; 2% peptide, removed one minute later
  hemostasis at the margin of the liver after the peptide was removed: complete hemostasis was achieved
[6]; topical application of 2% peptide to the margin
  time until bleeding stopped: less than 10 seconds
liver
  adhesions on the upper or lower surface of the liver: no adhesions
[7]; control cut treated 15 minutes after the injury
  progression of the intestinal wall inversion: stopped the progression
[7]; control cut treated with peptide solution 15 minutes after the injury
  leakage from the injury site: stopped all leakage
[7]; site treated with 2% peptide solution
  leakage of gastric fluids from the intestine: all leakage of gastric fluids from the intestine stopped
[8]; all cases
  shrinkage of the wound site versus untreated: happened faster
[8]; single application, contraction of the wound site as early as day 1
  healing of treated wounds versus no treatment: healed much faster
[8]; single application, in some cases
  speeding of healing: ≤ 5 days
